Test results as given in patent US12329753B2, “Phosphodiesterase inhibitor treatment” (Cyrano Therapeutics, Inc., priority 2008, dated 2025).

Tested on: patients with hyposmia
Assay: Subjective overall smell function response to oral theophylline
Assay type: in vivo, human
Experimental: Independently, patients were also required to grade their ability to smell daily on a scale from 0-100, with 0 reflecting no overall smell function over a 24 hour period, 100 reflecting normal overall smell function over this period and numbers between 0-100 reflecting their estimation of their overall ability to smell odors over this period.
After determination of hyposmia, patients were treated in an open label, fixed design, controlled open trial. Patients were given an oral extended release theophylline in divided daily doses taken in the middle of breakfast and lunch. All patients were initially given 200 mg of theophylline; changes in this dose were made based upon subjective responses to therapy. If at a subsequent return visit, patients reported ≥5% subjective improvement in overall smell function, they continued on this same dose of theophylline and were reevaluated after four to six months of continued treatment. Results from any subsequent return from these improved patients were not included in any subsequent data report. All subsequent comparisons between treated and untreated patients were made only between those patients continuing in the study compared to their own measurements obtained in the untreated state. If patients reported <5% subjective improvement, their theophylline dose was increased by 200 mg daily and they were scheduled for retesting at the study site after two to four months at this new dosage. For patients that reported <5% improvement, this sequence continued until patients reached 800 mg of theophylline, at which time the study was considered completed.
Patients returned for reevaluation after two to four months of treatment. Measurements of blood serum theophylline were measured by a fluorescence polarization assay (Abbott, Chicago, IL). At this time, subjective changes in smell function were measured independently (compared to patient's memory of previous normal smell function monitored by use of the patients' daily measurements) using the scale from −100-0-+100 previously described (vs). After independently recording their subjective responses, smell function was measured for all four odors with DT, RT, ME and H determined without recourse to prior measurements.
Subjective overall changes in smell acuity were reported by telephone and by FAX or email at two-four month intervals after treatment was initiated using the standardized form in which they measured daily changes in smell acuity using the −100-0-+100 scale as noted above (vs). Using the same criteria noted above, if at their initial two-four month call-in they reported improvement in smell acuity of ≥5%, they continued at 200 mg and returned to the study site at four-six months on this treatment dose. If they reported improvement in smell acuity of <5% their dose of theophylline was increased to 400 mg for an additional two-four months and they then called the study site at the end of this period.

Question: How did the “patients improved ≥5% (subjective)” value (oral 200 mg daily, 34 of 199 returning patients) turn out when `Cn1c(=O)c2[nH]cnc2n(C)c1=O` [theophylline] was run?
Answer: 17.1%

Question: And the “improved patients who considered smell function returned to normal” value (oral 200 mg daily, nine of the 34 improved)?
Answer: 26.5%

Question: And the “patients reporting return to normal” value (oral 200 mg, one of the improved non-returning patients)?
Answer: 14.3%

Question: And the “patients reporting >5% improvement” value (oral 200 mg, seven of the 15 non-returning patients)?
Answer: 46.7%

Question: What about the “patients improved ≥5% (subjective)” value (oral 400 mg daily, 35 of 120 patients) of the same compound?
Answer: 29.2%

Question: And the “improved patients who considered smell function returned to normal” value (oral 400 mg daily, three of the 35 improved)?
Answer: 8.6%

Question: And the “patients who considered smell function returned to normal” value (oral 600 mg daily, 17 of 160 patients)?
Answer: 10.6%

Question: What about the “patients improved ≥5% (subjective)” value (oral 600 mg daily, 66 of 160 patients) of the same compound?
Answer: 41.2%

Question: And the “patients improved ≥5% (subjective)” value (oral 800 mg daily, 15 of 28 patients)?
Answer: 53.6%

Question: What about the “patients who considered smell function returned to normal” value (oral 800 mg daily, three patients) of the same compound?
Answer: 33%

Question: And the “improved patients reporting return to normal” value (oral 200-600 mg, Type III hyposmia, 3 of 5)?
Answer: 60%

Question: What about the “improved patients reporting return to normal” value (oral 200-800 mg, Type I hyposmia, 5 of 32) of the same compound?
Answer: 15.6%

Question: And the “improved patients reporting return to normal” value (oral 200-800 mg, Type II hyposmia, 26 of 129)?
Answer: 20.2%

Question: What about the “time course of subjective response” value (oral theophylline) of the same compound?
Answer: little or no improvement before four-six weeks of treatment

Question: What about the “responsive patients who considered smell function returned to normal” value (whole study, 34 of 157) of the same compound?
Answer: 21.7%
